Several values for one entry are separate records, joined by “and”; a condition that tells them apart may be missing. Identical values can stand only once.
Legend:
tobacco [1] = test: Spray (tank mix) phytotoxicity/herbicidal effect on greenhouse tobacco; assay type: in vivo, Nicotiana tabacum (tobacco); details: for Phytotoxicity at 4d post-spraying: Percent Leaf Area Affected / Phytotoxicity at 6d post-spraying: Percent Leaf Area Affected: paraquat 187 mg/l and/or Ethephon 1000 ul/l
Method: (§1) In all experiments, deionized ultra-pure water was used in preparing solutions. Spray solutions were used as soon as possible after mixing.
(§2) COC was added to all spray solutions at a rate of 0.25% (v/v). For all treatments containing both an herbicide and an SAR inducer, these materials were mixed and applied in a single spray solution (commonly known as a tank mix). After spraying, plants were moved to the greenhouse and arranged in a randomized complete block experimental design. Plants were evaluated for phytotoxicity/herbicidal effects after spraying by assessing damage according to percent leaf area affected.
(§3) All the data were subject to an analysis of variance, and the mean separations were determined with Duncan's new multiple range test at α=0.05. The present invention may be illustrated by the following representative examples: […]

[2] = system: lambsquarter (Chenopodium album); test: Spray (tank mix) phytotoxicity/herbicidal effect on lambsquarter; assay type: in vivo
Method: as §1, §2, §3

tobacco [3] = system: tobacco; set-up: species or system Nicotiana tabacum (tobacco); details: in vivo
Method: as §2
All the data were subject to an analysis of variance, and the mean separations were determined with Duncan's new multiple range test at α=0.05. The present invention may be illustrated by the following representative examples:
In this experiment, the plants were treated and kept in the dark for 48 hours from the first spray treatment to delay the light-dependent effects of paraquat.

tobacco [4] = system: tobacco; set-up: species or system Nicotiana tabacum (tobacco); details: in vivo; remark: listed apart in the source
Method: as §2, §3

giant foxtail = test: Spray (tank mix) phytotoxicity/herbicidal effect on giant foxtail; assay type: in vivo; details: monocotyledonous plant species (giant foxtail, Table 2)
Method: as §1, §2, §3

[5] = tobacco, added to the paraquat spray solution
[6] = lambsquarter, Actigard 187 mg/l, with or without paraquat 150 mg/l, COC 0.25%
[7] = lambsquarter, Actigard 935 mg/l, with or without paraquat 150 mg/l, COC 0.25%
[8] = tobacco, Actigard 187 mg/l, with or without paraquat 150 mg/l, COC 0.25%
[9] = tobacco, Actigard 935 mg/l, with or without paraquat 150 mg/l, COC 0.25%

## O=C(O)c1cc(F)ccc1O [5-FSA, 5-fluorosalicylate]
Tobacco [1]; in vivo
  Phytotoxicity at 6d: 2.3 B
  Phytotoxicity at 8d: 2.8 B
  Phytotoxicity at 11d: 2.0 B
Tobacco [1]; [5]
  Safening from paraquat herbicide damage (in words): able to safen tobacco from paraquat

## CSC(=O)c1cccc2nnsc12 [Actigard, Benzo(1,2,3)thiadiazole-7-carbothioic acid-S-methyl ester]
[2]; [6]
  Phytotoxicity at 2d: Percent Leaf Area Affected: 0 A Percent
  Phytotoxicity at 4d: Percent Leaf Area Affected: 0 A Percent
  Phytotoxicity at 7d: Percent Leaf Area Affected: 0 A Percent
[2]; [7]
  Phytotoxicity at 2d: Percent Leaf Area Affected: 0 A Percent
  Phytotoxicity at 4d: Percent Leaf Area Affected: 0 A Percent
  Phytotoxicity at 7d: Percent Leaf Area Affected: 0 A Percent
[2]; lambsquarter, tank mixed or applied with paraquat
  Protection from paraquat damage (in words): did show safening
Tobacco [1]; [8]
  Phytotoxicity at 2d: Percent Leaf Area Affected: 0 A Percent
  Phytotoxicity at 4d: Percent Leaf Area Affected: 0 A Percent
  Phytotoxicity at 7d: Percent Leaf Area Affected: 0 A Percent
Tobacco [1]; [9]
  Phytotoxicity at 2d: Percent Leaf Area Affected: 1 A Percent
  Phytotoxicity at 4d: Percent Leaf Area Affected: 0 A Percent
  Phytotoxicity at 7d: Percent Leaf Area Affected: 0 A Percent
Tobacco [1]; [5]
  Safening from paraquat herbicide damage (in words): safened the plants from paraquat herbicide damage

## c1cc[n+]2c(c1)-c1cccc[n+]1CC2 [Diquat, 1,1′-ethylene-2,2′-bipyridyidiylium ion]
Tobacco [1]; in vivo
  Phytotoxicity at 1d: 3.3. D
  Phytotoxicity at 4d: 4.3 C
  Phytotoxicity at 6d: 4.3 C
  Phytotoxicity at 12d: 3.9 C

## O=P(O)(O)CCCl [Ethephon, (2-choroethyl) phosphonic acid]
Tobacco [1]; tobacco, 1-MCP, an inhibitor of ethylene perception
  Safening from paraquat with pre-treatment with 1-MCP (in words): observed regardless of pre-treatment with 1-MCP
Tobacco [1]; [5]
  Safening from paraquat herbicide damage (in words): safened the plants from paraquat herbicide damage
Tobacco [1]; tobacco, COC 0.25%
  Phytotoxicity at 4d post-spraying: Percent Leaf Area Affected: 0 A Percent
  Phytotoxicity at 6d post-spraying: Percent Leaf Area Affected: 0 A Percent

## O=C([O-])c1ccccc1O.[Na+] [NaSA, sodium salicylate]
Tobacco [3]
  Safening from paraquat (in words): resulted in safening
Tobacco [4]
  Protection from paraquat damage (in words): significant protection from paraquat damage
Giant foxtail
  Safening from paraquat damage (in words): safen plants from paraquat damage
[2]; in vivo
  Protection from paraquat damage (in words): limited or no protection from paraquat damage
Tobacco [1]; in vivo
  Safening from paraquat herbicide damage (in words): safened the plants from paraquat herbicide damage
Tobacco [1]; tobacco, Table 3
  Safening against diquat (in words): able to safen tobacco against the herbicide diquat

## C[n+]1ccc(-c2cc[n+](C)cc2)cc1 [Paraquat, 1,1′-dimethyl-4,4′-bipyridinium ion]
Tobacco [3]
  Phytotoxicity after 3 days in the light (5 days after initial spray): 5.0 D
  Phytotoxicity after 12 days in the light (14 days after initial spray): 5.0 D
Tobacco [4]
  Phytotoxicity at 1d post-spraying: 3.7 D
  Phytotoxicity at 4d post-spraying: 3.8 D
  Phytotoxicity at 6d post-spraying: 3.4 E
[2]; in vivo
  Phytotoxicity at 2d: 3.9 C
  Phytotoxicity at 2d: Percent Leaf Area Affected: 72.5 C Percent
  Phytotoxicity at 4d: 3.9 BC
  Phytotoxicity at 4d: Percent Leaf Area Affected: 72.5 BC Percent
  Phytotoxicity at 7d: 3.9 BC
  Phytotoxicity at 7d: Percent Leaf Area Affected: 72.5 BC Percent
Tobacco [1]; in vivo
  Phytotoxicity at 1d: 4.1 E
  Phytotoxicity at 1d: Percent Leaf Area Affected: 75 E Percent
  Phytotoxicity at 2d: Percent Leaf Area Affected: 61.25 E Percent and 65 E Percent
  Phytotoxicity at 4d: Percent Leaf Area Affected: 62.5 F Percent
  Phytotoxicity at 5d: Percent Leaf Area Affected: 83.75 E Percent
  Phytotoxicity at 7d: Percent Leaf Area Affected: 50 D Percent and 96.5 D Percent
  Phytotoxicity at 8d: 5.0 C
  Phytotoxicity at 10d: Percent Leaf Area Affected: 99 F Percent
  Phytotoxicity at 11d: 5.0 E
  Phytotoxicity at 12d: 4.2 C
Tobacco [1]; tobacco, COC 0.25%
  Phytotoxicity at 4d post-spraying: Percent Leaf Area Affected: 95 C Percent
  Phytotoxicity at 6d post-spraying: Percent Leaf Area Affected: 97.5 C Percent
